This is an account of results in patent US7160914B2, “Compounds that exhibit specific molecular recognition of mixed nucleic acid sequences and bind in the DNA minor groove as a dimer” (The University of North Carolina at Chapel Hill, priority 1999, dated 2007).

The subject of assay [1] is 265 bp EcoRI-PvuII restriction fragment from plasmid pBS. Briefly: Quantitative DNase I footprinting. It is filed as binding. The note with it: for footprint in the 90–100 base region (GC-rich): 265 mer pBS fragment, DNase I; for binding to sites containing GC base pairs, such as ATGA, ACGA, and ATGT: several restriction fragments. As to the method:
In order to characterize the DNA recognition properties of a series of analogs of furamidine (shown in FIG. 1), quantitative DNAaseI footprinting studies were conducted using of a number of derivatives with several different DNA sequences. Plasmid DNA restriction fragments were prepared and DNaseI footprinting experiments were conducted as described in C. Bailly, et al., Biochemistry 35, 1150 (1996) and C. Bailly et al., Anti Cancer Drug Design (in press, 1999).
FIG. 2. illustrates the results of a quantitative DNase I footprinting titration experiment with the compound DB293 on a 265 bp DNA fragment as described herein. The EcoRI-PvuII restriction fragment from plasmid pBS was 3′-end labeled at the EcoRI site with [α-^32P]dATP in the presence of AMV reverse transcriptase. […] Drug concentrations are (lanes 1–11) 0, 0.3, 0.6, 0.9, 1.2, 1.5, 1.8, 2.1, 2.4, 2.7, 3.0 μM for DB 293 and (lanes 12–15) 0, 1, 2 and 5 μM for DB270. Tracks labeled ‘G’ represent dimethylsulphate-piperidine markers specific for guanines. The track labeled DNA contained no drug and no enzyme. Numbers at the right side of the gel refer to the numbering scheme of the fragment. The rectangles on the left side refer to the positions of (open box) an AT-rich and (filled box) a GC-rich binding site for DB293. FIG. 2B is a graphical illustration of footprinting plots for the binding of DB293 to (open circles) the AT site 5′-AATTAA and (filled squares) the GC-rich site 5′-ACCATG. The relative band intensity R corresponds to the ratio Ic/Io where Ic is the intensity of the band at the ligand concentration c and Io is the intensity of the same band in the absence of DB293. The differential cleavage plots shown in FIG. 2C compare the susceptibility of the DNA to cutting by DNase I in the presence of (filled circles) 5 μM DB270 or (open squares) 1.5 μM DB293. Deviation of points towards the lettered sequence (negative values) corresponds to a ligand-protected site and deviation away (positive values) represents enhanced cleavage. The vertical scale is in units of ln(fa)–l(fc), where fa is the fractional cleavage at any bond in the presence of the drug and fc is the fractional cleavage of the same bond in the control. […] The rectangles below the sequence show the positions of (open box) the AT binding site and (filled box) the GC-rich site.

Assay [2] concerns hairpin duplex oligo2 (93–104 base sequence region of the 265 mer pBS restriction fragment). Nature of the assay: Thermal melting (Tm) of hairpin oligo2. It is filed as binding. As to conditions: oligo2 on titration with compound; 0.01 M MES, 0.001M EDTA. On the procedure: In order to investigate the complexes of these compounds in more detail with GC rich sequences, a hairpin duplex model containing the 93–104 base sequence region from the 265 mer pBS restriction fragment was synthesized and is illustrated as oligo2 in FIG. 1. Oligo1 (also shown in FIG. 1) with the AATT sequence that has been used in the analysis of a large number of minor-groove agents provides a reference.
Thermal melting experiments were conducted with a Cary 4 spectrophotometer interfaced to a microcomputer. A thermistor fixed into a reference cuvette was used to monitor the temperature. The oligomers were added to 1 mL of buffer (0.01 M MES and 0.001M EDTA) in 1 cm path length reduced volume quartz cells, and the concentration was determined by measuring the absorbance at 260 nm. Experiments were generally conducted at a concentration of 2×10^−6 M for hairpin oligo2, and 3×10^−6 M for hairpin oligo2-1. Tm experiments for the complexes were conducted as a function of ratio.

For the next assay, the system named is oligo2-1 hairpin duplex. On the procedure: (§1) To pursue the comparative quantitative analysis of these compounds with DNA in more detail by using surface plasmon resonance, 5′-biotin labeled analogs of oligo2-1 and 2-2 were immobilized on a BIAcore four-channel streptavidine-coated sensor chip as follows: Immobilization of DNA and surface plasmon resonance (SPR) binding studies: 5′-biotin labeled hairpins were purchased with HPLC purification (Midland Co). […] Steady state analysis was performed with multiple injections f different concentrations of each compound over the SA surface at a flow rate of 20 μl/min, at 25° C.
(§2) Oligo1 was immobilized as a control sequence and one flow cell was left as an unmodified reference. […] The free compound is fixed by the concentration in the flow solution.

The test system of a further assay is oligo2-2 hairpin duplex. The note with it: SPR, two site model. On the procedure:
as §1, §2

Another assay relates to hairpin duplex oligo2-1. Nature of the assay: Thermal melting (Tm) of hairpin oligo2-1. It is filed as binding. As to conditions: 1:1 and 2:1 ratios, single transitions.

Take `N=C(N)c1ccc(-c2ccc(-c3nc4ccc(C(=N)N)cc4[nH]3)o2)cc1` [DB293]: in assay [1], the “footprint in the 90–100 base region (GC-rich)” value is “very strong footprint”; the “binding to sites containing GC base pairs, such as ATGA, ACGA, and ATGT” value was “strongly binds”. Besides, the “C50 (drug concentration required for half-maximal footprinting) at the ATGA site versus the neighboring ATTA site” value in assay [1] (ATGA site compared with ATTA site) is “significantly lower”. In addition, in assay [2], the “increase in Tm” value is at most 30 °C. In addition, in the assay on oligo2-1 hairpin duplex (also relative to binding of DB270), the “K2 relative to K1 (times larger)” value is reported as “over 25 times”. In the assay with oligo2-1 hairpin duplex (oligo2-1, two site model), the “macroscopic binding constant K1 (initial binding)” value is reported as 2.8×10^6 and the “macroscopic binding constant K2 (second site after the first site is filled)” value is recorded as 7.3×10^7. The “binding to oligo2-2 compared with oligo2-1” value with oligo2-2 hairpin duplex is on record as “Very similar results”.
For `N=C(N)c1ccc2nc(-c3ccc(-c4nc5ccc(C(=N)N)cc5[nH]4)o3)[nH]c2c1` [DB270, reference compound], in assay [1], the “footprint in the 90–100 base region (GC-rich)” value is listed as “negligible footprints”; the “binding to sites containing GC base pairs, such as ATGA, ACGA, and ATGT” value was “not and do not bind strongly or footprint”. In addition, in the assay with oligo2-1 hairpin duplex (SPR), the “binding to oligo2-1 relative to binding to oligo1” value was “at least a factor of ten weaker”. Also, the “melting temperatures of complexes with oligo2-1” value with hairpin duplex oligo2-1 is listed as “below the DB293 value”.
